We go through eight molecules from US20100184683A1, “ANTIBACTERIAL AND ANTIFUNGAL PEPTIDES” (C3 JIAN, INC., priority 2009, published 2010).

Assay [1] has as its system MRSA. Format: cell-based, Methicillin-resistant Staphylococcus aureus. The note with it: MRSA; BHI supplemented with 2% glucose, 37° C., aerobic; inoculum 10^5 CFU/ml; 18-24 h or 48 h. As to the method: (§1) In certain embodiments the MIC assays are performed as described herein in the Examples. For each organism, the media and growth conditions utilized is detailed in Table 8.
(§2) In certain embodiments the MIC assays are performed as follows: For each organism, the media and growth conditions utilized is detailed in Table 8.

Assay [2] has as its system A. baumannii. Format: cell-based, Acinetobacter baumannii. Here is the method: as §1, §2
The subject of assay [3] is B. subtilis. The format is cell-based, Bacillus subtilis. Here is the method: as §1, §2
The test system of assay [4] is C. difficile. The format is cell-based, Clostridium difficile. As to the method:
as §1, §2

The subject of assay [5] is P. aeruginosa. Format: cell-based, Pseudomonas aeruginosa. Conditions: P. aeruginosa; MH, 37° C., aerobic; inoculum 10^5 CFU/ml; 18-24 h or 48 h. Here is the method: as §1, §2
Assay [6] deals with S. epidermidis. Format: cell-based. As to the method:
as §1, §2

Assay [7] deals with T. rubrum. The format is cell-based, Trichophyton rubrum. The note with it: T. rubrum; Potato Dextrose Agar, 25° C., aerobic; inoculum 10^5 CFU/ml; 18-24 h or 48 h. As to the method:
as §1, §2

Assay [8] relates to A. niger. The format is cell-based, Aspergillus niger. Conditions: A. niger; Potato Dextrose Agar, 25° C., aerobic; inoculum 10^5 CFU/ml; 18-24 h or 48 h. Here is the method:
as §1, §2

The test system of assay [9] is C. jeikeium. In words: MIC assay, C. jeikeium. Format: cell-based, Corynebacterium jeikium. Conditions: TSB supplemented with 1% Tween-80, 37° C., aerobic, inoculum 10^6 CFU/ml, 18-24 h or 48 h. As to the method: as §1, §2
Assay [10] relates to S. mutans. Format: cell-based, Streptococcus mutans. Conditions: S. mutans; TH supplemented with 1% sucrose, 37° C., anaerobic; inoculum 10^5 CFU/ml; 18-24 h or 48 h. As to the method: as §1, §2
The test system of assay [11] is P. gingivalis. The format is cell-based, Porphyromonas gingivalis. As to the method: as §1, §2
Assay [12] concerns A. naeslundii. The format is cell-based, Actinomyces naeslundii. Here is the method:
as §1, §2

Assay [13] relates to C. albicans. Format: cell-based, Candida albicans. As to the method: as §1, §2
Setting [14] is: A. baumannii, LB, 30° C., anaerobic, inoculum 10^5 CFU/ml, 18-24 h or 48 h.
The mark [15] stands for this setting: B. subtilis, BHI, 30° C., aerobic, inoculum 10^5 CFU/ml, 18-24 h or 48 h.
[16] abbreviates: S. epidermidis, BHI supplemented with 0.25% glucose, 37° C., aerobic, inoculum 10^5 CFU/ml, 18-24 h or 48 h.
The mark [17] stands for this setting: C. difficile, BHIS, 37° C., anaerobic, inoculum 10^5 CFU/ml, 18-24 h or 48 h.

Converted amounts (≈) assume the structure as drawn. Where two headings read alike, the source gives them in different places. Ends that are not written are not given here. Peptide text beside a SMILES is read from it.

What is called MIC is the lowest concentration that inhibits growth of the organism. Read a low MIC as greater potency. For the molecule `CC[C@H](C)[C@H](NC(=O)CNC(=O)[C@@H](N)CCSC)C(=O)N[C@H](C(=O)N[C@@H](C)C(=O)NCC(=O)N[C@H](C(=O)N[C@H](C(=O)N[C@@H](CCCCN)C(=O)N[C@@H](Cc1ccccc1)C(=O)N[C@H](C(=O)N[C@@H](CCCCN)C(=O)NCC(=O)N[C@@H](CC(C)C)C(=O)N[C@H](C(=O)N[C@@H](CCC(=O)O)C(=O)N[C@@H](CCCCN)C(=O)N[C@@H](Cc1ccccc1)C(=O)N[C@H](C(=O)NCC(=O)N[C@@H](CCCCN)C(=O)O)[C@@H](C)O)[C@@H](C)CC)[C@@H](C)CC)[C@@H](C)CC)[C@@H](C)CC)[C@@H](C)CC` [PF-006], the MIC in [1] is 50 µM (≈ 114 µg/mL); in [2] (setting [14]), 50 µM (≈ 114 µg/mL); in [3] (setting [15]), 25 µM (≈ 56.9 µg/mL).

With `CC[C@H](C)[C@H](NC(=O)[C@H](CCC(=O)O)NC(=O)[C@H](CCCCN)NC(=O)[C@@H](NC(=O)[C@H](CCCCN)NC(=O)[C@H](CCC(=O)O)NC(=O)[C@H](CC(C)C)NC(=O)[C@@H](NC(=O)[C@H](CC(=O)O)NC(=O)[C@@H](NC(=O)[C@H](CCC(N)=O)NC(=O)[C@H](CCCCN)NC(=O)[C@H](CCCCN)NC(=O)[C@H](CC(N)=O)NC(=O)[C@@H](N)CCCCN)[C@@H](C)O)[C@@H](C)CC)C(C)C)C(=O)N[C@@H](CC(C)C)C(=O)N[C@@H](CC(=O)O)C(=O)N[C@@H](CCCCN)C(=O)N[C@@H](CCCCN)C(=O)N[C@@H](CCCCN)C(=O)N[C@@H](CCCCN)C(=O)N[C@H](C(=O)N[C@@H](CCCCN)C(=O)N[C@@H](CO)C(=O)N[C@H](C(=O)NCC(=O)N[C@@H](CCC(N)=O)C(=O)N[C@@H](CCCCN)C(=O)N[C@@H](CC(C)C)C(=O)N[C@@H](Cc1ccc(O)cc1)C(=O)O)C(C)C)[C@@H](C)O` [PF-538] (H-KNKKQTDILEKVKEILDKKKKTKSVGQKLY-OH; N-terminus and C-terminus assumed), the MIC in assay [4] and in assay [2] was 25 µM (≈ 89 µg/mL) throughout.

`CC[C@H](C)[C@H](NC(=O)[C@H](CCCNC(=N)N)NC(=O)[C@@H](NC(=O)[C@H](CCCCN)NC(=O)[C@H](CCCCN)NC(=O)[C@H](CC(C)C)NC(=O)[C@H](CC(C)C)NC(=O)[C@H](CCCCN)NC(=O)[C@H](CCCNC(=N)N)NC(=O)[C@H](Cc1c[nH]cn1)NC(=O)[C@H](CCCCN)NC(=O)[C@H](CCCCN)NC(=O)[C@H](CCCCN)NC(=O)[C@H](C)NC(=O)[C@H](CCSC)NC(=O)[C@H](CCCNC(=N)N)NC(=O)[C@H](CCCCN)NC(=O)[C@H](CCCNC(=N)N)NC(=O)[C@H](CCCNC(=N)N)NC(=O)[C@H](CCCCN)NC(=O)[C@H](CCCCN)NC(=O)[C@@H](NC(=O)[C@@H](NC(=O)[C@H](CO)NC(=O)CN)C(C)C)[C@@H](C)CC)[C@@H](C)O)C(=O)N[C@@H](CCC(N)=O)C(=O)N[C@@H](CCCNC(=N)N)C(=O)N[C@@H](CCCNC(=N)N)C(=O)N[C@@H](CCCNC(=N)N)C(=O)N[C@@H](C)C(=O)NCC(=O)N[C@@H](CCCCN)C(=O)O` [PF-527] (H-GSVIKKRRKRMAKKKHRKLLKKTRIQRRRAGK-OH; N-terminus and C-terminus assumed): the MIC in assay [5] stood at 50 µM (≈ 197 µg/mL); in assay [6] (setting [16]), 25 µM (≈ 98.5 µg/mL); in assay [7], 25 µM (≈ 98.5 µg/mL); in assay [8], 50 µM (≈ 197 µg/mL); in [9], 6.25 µM (≈ 24.6 µg/mL); in assay [1], 50 µM (≈ 197 µg/mL). For the same molecule, in [3], the MIC turned out to be 12.5 µM (≈ 49.3 µg/mL).

Turning to `CC[C@H](C)[C@H](NC(=O)[C@H](CO)NC(=O)[C@H](CC(C)C)NC(=O)[C@H](CCSC)NC(=O)[C@H](CC(C)C)NC(=O)[C@H](CCC(=O)O)NC(=O)CNC(=O)[C@H](CCCCN)NC(=O)[C@H](Cc1ccc(O)cc1)NC(=O)[C@H](CCC(=O)O)NC(=O)[C@H](CCCCN)NC(=O)[C@@H](NC(=O)[C@@H](NC(=O)[C@@H](NC(=O)[C@H](CCCCN)NC(=O)[C@H](CCCNC(=N)N)NC(=O)[C@H](CC(C)C)NC(=O)[C@@H](NC(=O)[C@H](CCCCN)NC(=O)[C@H](Cc1ccccc1)NC(=O)[C@H](CCCCN)NC(=O)[C@@H](N)CO)C(C)C)[C@@H](C)CC)[C@@H](C)CC)[C@@H](C)CC)C(=O)N[C@@H](CCC(N)=O)C(=O)N[C@@H](CCCCN)C(=O)N[C@@H](CCC(N)=O)C(=O)N[C@@H](CCCNC(=N)N)C(=O)O` [PF-530] (H-SKFKVLRKIIIKEYKGELMLSIQKQR-OH; N-terminus and C-terminus assumed), the MIC in assay [2] turned out to be 25 µM (≈ 79.4 µg/mL).

In the case of FELVDWLETNLGKILKSKSA [PF-522], the MIC in [4] (setting [17]) was 25 µM.

YIQFHLNQQPRPKVKKIKIFL [PF-531]: the MIC in [5] came to 50 µM; in assay [4] (setting [17]), 12.5 µM; in assay [6] (setting [16]) it was 50 µM; in [7], 50 µM; in assay [8] it was 25 µM; in assay [10] it was 12.5 µM. The figures for the MIC in assay [9], in [2] (setting [14]) and in [3] (setting [15]) were 6.25 µM, 25 µM and 25 µM, respectively.

For the molecule `CC[C@H](C)[C@H](N)C(=O)N[C@@H](CC(C)C)C(=O)N[C@@H](CC(N)=O)C(=O)N[C@@H](CCCCN)C(=O)N[C@@H](CCCCN)C(=O)N1CCC[C@H]1C(=O)N[C@@H](CCCCN)C(=O)N[C@@H](CC(C)C)C(=O)N1CCC[C@H]1C(=O)N[C@@H](CC(C)C)C(=O)N[C@@H](Cc1c[nH]c2ccccc12)C(=O)N[C@@H](CCCCN)C(=O)N[C@@H](CC(C)C)C(=O)NCC(=O)N[C@@H](CCCCN)C(=O)N[C@@H](CC(N)=O)C(=O)N[C@@H](Cc1ccc(O)cc1)C(=O)N[C@@H](Cc1ccccc1)C(=O)N[C@@H](CCCNC(=N)N)C(=O)N[C@@H](CCCNC(=N)N)C(=O)N[C@@H](Cc1ccccc1)C(=O)N[C@@H](Cc1ccc(O)cc1)C(=O)N[C@H](C(=O)N[C@@H](CC(C)C)C(=O)N1CCC[C@H]1C(=O)N[C@H](C(=O)N[C@@H](Cc1ccccc1)C(=O)N[C@@H](CC(C)C)C(=O)N[C@@H](C)C(=O)O)[C@@H](C)O)C(C)C` [PF-C287] (H-ILNKKPKLPLWKLGKNYFRRFYVLPTFLA-OH; N-terminus and C-terminus assumed), the MIC came out at 50 µM (≈ 178 µg/mL) in assay [11], 25 µM (≈ 89.1 µg/mL) in assay [12] and 50 µM (≈ 178 µg/mL) in [13].

Take “MPVSKKRYMLSSAYATALGICYGQVATDEKESEITAIPDLLDYLSVEEYLL [PF-C163]”: the MIC in assay [6], in assay [11] and in assay [12] was 50 µM in each case.
